Series [1] can be described thus: Toxicological studies in rats. The series is classed as in vivo.
The next series has as its system P388 tumors. Nature of the series: Murine P388 model in BDF1 mice. The series is classed as in vivo. As for the experimental part: Antitumor studies on mice focussed, in one case, on the P388 leukaemia model. […] This is an ascitic tumor model that was generated by intraperitoneal inoculation of 1×10^6 P388 cells (derived from culture, with an original cell line obtained from the NCI tumor repository) in BDF1 mice (Charles Rivers). One day after tumor cell inoculation, mice were treated with a single intravenous injection of drug. Animal weight was monitored daily and tumor progression was measured as an increase in animal weight and through estimation of survival time. Therapy was described by a decrease in tumor progression and an increase in survival time relative to an untreated control group. Initial studies established the maximum therapeutic dose for AHVB. Subsequently comparative studies with vincristine and Navelbine™ were initiated where animals were treated with each drug at the maximum therapeutic dose.
The in vivo anti-tumor activity of AHVB was compared to that of vincristine, Navelbine™ in the BDF1-murine P388 model in the procedure as follows. P388 cells were derived from the ascities of previously injected female BDF1 mice (19-21 grams) P388 cells, from the NCI tumor repository were inoculated directly into mice. The cells arrive from NCI frozen in 1 ml aliquots. These samples were thawed rapidly at 37° C. and subsequently injected (within 1 hour) intraperitoneally into two mice, 0.5 ml per mouse. One week (7 days) after inoculation, the tumor cells were harvested by removing peritoneal fluid using a sterile syringe with a 22 gauge needle. The cells, pooled from two animals, were counted using a hemocytometer, diluted (RPMI media) to a concentration of 2×10^6 cells/ml and 0.5 ml was then re-injected into each of two BDF1 mice. Remaining cells were washed and placed into a DMSO containing media and frozen (in freezer packs that cool at a defined rate). This process was repeated weekly over a […]. Cells used for anti-tumor studies were collected from the third passage to the 20th passage. After the 20th passage the cells were no longer used for experimental studies. Newly established cells were derived from the frozen cells prepared as described above.
Groups (five mice per group) of female BDF1 mice (Charles Rivers, Canada) were injected (intraperitoneal) with 10^6 P388 cells (as described above). One day after tumor cell inoculation, the mice were given a bolus intravenous injection of indicated drug via the lateral tail vein. Control groups were injected with saline. Free drug samples were prepared on the day of injection such that the final concentrations were sufficient to deliver the indicated drug dose in a volume of 200 μl. All dilutions were made using 0.9% Sodium Chloride Injection USP. The mice were briefly (less than 30 sec.) restrained during intravenous injections. Dilation of the vein was achieved by holding the animals under a heat lamp for a period of between five and ten minutes. Following administration of the test articles, animals were weighed daily for fourteen days and monitored for signs of stress twice daily for the first 14 days (once daily on weekends) and once daily for the remainder of the study. Severely distressed animals were terminated by CO2 asphyxiation and the time of death was recorded to occur on the following day. Although complete dose titrations were completed for each drug, the data shown in FIG. 6 is that obtained after administration of the free drugs at their maximum tolerated dose. This was 3, 40 and 40 mg/kg for vincristine, Navelbine™ and AHVB, respectively.
After treating mice (bearing the P388 tumor) with a single dose of the indicated drug, animals were examined twice daily for the first 14 days (once daily on weekends). Weight gain in the control is an indication of tumor progression.
The studies were conducted as described for FIG. 6. […]

A short description of series [2]: Phase I clinical trial, toxicity and MTD. Format: in vivo, human patients. As for the experimental part: Patients had normal bone marrow, hepatic and renal function. Twenty-four patients were treated with escalating doses of AHVB, administered as a 1 hour infusion every 3 weeks. The 24 patients comprised 12 male and 12 female patients with a median age of 60 years (range 27-75 years). Twenty-one of the 24 patients were evaluable. Diagnoses were non-small cell lung cancer (NSCLC), colorectal cancer, soft tissue sarcoma, pancreatic cancer, breast cancer and metastatic neuroendocrine cancer in 11, 5, 4, 1, 1, and 1 patient(s), respectively. […] A total of 51 courses were administered at doses of 2.5, 5, 10,16.5, 21,25 and 30 mg/m^2 to 1,3, 1,3, 6, 6 and 1 patient(s), respectively (see Table 4).
The first patient was entered in the trial at the 2.5 mg/m^2 dose level. […] Five patients were enrolled at the 16.5 mg/m^2 dose level because two patients were not evaluable and had to be replaced. […] Six patients were enrolled at the 25 mg/m^2 dose level. […] This dose level, therefore, exceeded the MTD.
Seven patients were enrolled at the 21 mg/m^2 dose level, but only 6 were evaluable for toxicity due to one patient developing Grade 2 hypertension, headache, nausea and vomiting at the start of the infusion, which recurred on rechallenge. This patient received only 15 ml of the drug solution and, therefore, was not evaluable to assess toxicity. […] The nausea and vomiting observed at the 21 mg/m^2 dose level was a DLT. It was determined that the 21 mg/m^2 dose is the MTD.

The conditions of series [3]: single agent; cited from earlier work.
The test system of another series is nerves. Conditions: vs vinblastine, vindesine; cited from earlier work.

“Also recorded” adds a separate entry of the source. Structures can show the parent of a compound that is named as a salt.

For the molecule `CCC1=C[C@H]2CN(CCc3c([nH]c4ccccc34)[C@@](C(=O)OC)(c3cc4c(cc3OC)N(C)[C@H]3[C@@](O)(C(=O)OC)[C@H](OC(C)=O)[C@]5(CC)C=CCN6CC[C@]43[C@@H]65)C2)C1` [AHVB, 3′,4′-anhydrovinblastine], the toxicities entry in series [1] is “reversible myelosupression and gastrointestinal toxicities”; in series [2] (5 mg/m^2, 1 hour IV infusion every 3 weeks) it was “Grade 2 anorexia, hyperamylasemia, and increased serum creatinine; also recorded: One patient treated developed Grade 2 elevated amylase,; also recorded: elevated creatine and anorexia requiring an additional 2”; in series [2] (10 mg/m^2, 1 hour IV infusion every 3 weeks) it was “One patient treated with minimal toxicity”; in series [2] (16.5 mg/m^2, 1 hour IV infusion every 3 weeks), “Grade 2 toxicities including infusional hypertension, anemia and dizziness; also recorded: replaced. The next patient showed Grade 2 toxicities; also recorded: two patients had minimal toxicities”; in series [2] (21 mg/m^2, 1 hour IV infusion every 3 weeks), “Grade 3 nausea and vomiting and Grade 2 constipation; also recorded: patient exhibited Grade 3 nausea and vomiting. This does”; in series [2] (25 mg/m^2, 1 hour IV infusion every 3 weeks) it was “DLTs including Grade 4 level constipation and Grade 3 nausea and vomiting; also recorded: grade 4 constipation, Grade 3 tumor pain, nausea, vomiting,; also recorded: anemia and Grade 4 neutropenia (1 patient)”. Besides, in series [2] (30 mg/m^2, 1 hour IV infusion every 3 weeks), the toxicities result is “One patient treated developed Grade 3 leukopenia”. Also, the “onset of acute toxic reaction at maximum tolerated dose” value with P388 tumors (40 mg/kg IV) was at most 1 h. For the same molecule, the “anti-tumor activity, number of long term survivors (>60 days)” value in the series with P388 tumors (40 mg/kg single IV injection vs vincristine 3 mg/kg, FIG. 6) is given as “significantly better than that observed for vincristine”. The “times less toxic (on a weight basis) than vincristine” value in the series on P388 tumors (mouse, in vivo) is reported as “approximately 10 times”. In the series with P388 tumors (single IV injection at maximum tolerated dose, 40 mg/kg, FIG. 4), the “toxicity (vinca alkaloid induced weight loss)” value is recorded as “least toxic of the three drugs evaluated”. In the series with P388 tumors (single bolus intravenous injection, BDF1 mice bearing P388 tumors), this molecule came in with a maximum tolerated dose of 40 mg/kg. Moreover, the “MTD (maximum-tolerated dose)” value in series [2] (1 hour IV infusion every 3 weeks, patients) stood at 21 mg/m^2.

Take `CCC1=C[C@@H]2CN(C1)Cc1c([nH]c3ccccc13)[C@@](C(=O)OC)(c1cc3c(cc1OC)N(C)[C@H]1[C@@](O)(C(=O)OC)[C@H](OC(C)=O)[C@]4(CC)C=CCN5CC[C@]31[C@@H]54)C2` [Navelbine, 3′,4′-didehydro-4′-deoxy-C′-norvincaleukoblastine-di-L-tartrate]: in series [3], the “mild to moderate peripheral neuropathy (paresthesia and hypesthesia), frequency” value is recorded as 10 % of patients.

Regarding `CC[C@]1(O)C[C@H]2CN(CCc3c([nH]c4ccccc34)[C@@](C(=O)OC)(c3cc4c(cc3OC)N(C=O)[C@H]3[C@@](O)(C(=O)OC)[C@H](OC(C)=O)[C@]5(CC)C=CCN6CC[C@]43[C@@H]65)C2)C1` [Vincristine, Sulfate of 22-oxovincaleukoblastine], in the series on nerves, the “uptake into nerves, times faster than the other drugs” value is 4 times.

Source of the values: US20030162803A1, “Anhydrovinblastine for the treatment of cancer” (priority 1997, published 2003).
